# Laboratory results: US8652769B2, “Methods for separating frozen-thawed spermatozoa into X-chromosome bearing and Y-chromosome bearing populations” (XY, LLC, priority 2000, dated 2014)
# Marks after values point to notes of the source that are not given here.
# Test system: oocytes inseminated with separated stained spermatozoa from frozen-thawed sperm
# Assay: In-vitro fertilization: cleavage and development of oocytes inseminated with stained, flow-sorted frozen-thawed bull sperm
# Type: cell-based, bovine
# Method: As an example of an application of embodiments of the invention involving frozen bull sperm in IVF applications, sperm samples from two bulls were stained either at a concentration of 224 μM or 2,240 of Hoechst 33342 and the stained spermatozoa were then bulk sorted on a flow cytometer at 1000 sperm/sec into 2% egg yolk citrate. Spermatozoa were inseminated at 1×10^6/mL and embryos were cultured in the mSOF system described by Tervit H. R. et al., Successful Culture In-Vitro of Sheep and Cattle Ova, J. Reprod. Fertil., 30:493-497([…]), hereby incorporated by reference. Three replicates were carried out for bull 1 and one replicate for bull 2 (Table 1). With conventional procedures, blastocyst production with separated spermatozoa can be 70-90% of controls with spermatozoa that have not been separated.
# As can be understood, it can take much longer to stain frozen-thawed sperm so that they can be resolved during separation at the lower stain concentration than at 10×stain concentration. The differences observed in cleavage rates between the two stain concentrations most likely can be attributed to the extended incubation time at the lower stain level.
# [1] = Bull 1, 3 ejaculates, Hoechst 33342 conc. 224 μM, staining time required 190 min, 368 oocytes
# [2] = Bull 1, 3 ejaculates, Hoechst 33342 conc. 2240 μM, staining time required 60 min, 373 oocytes
# [3] = Bull 2, 1 ejaculate, Hoechst 33342 conc. 224 μM, staining time required 190 min, 86 oocytes
# [4] = Bull 2, 1 ejaculate, Hoechst 33342 conc. 2240 μM, staining time required 60 min, 81 oocytes
structure (smiles),measurement,setting,value
CCOc1ccc(-c2nc3ccc(-c4nc5ccc(N6CCN(C)CC6)cc5[nH]4)cc3[nH]2)cc1 [Hoechst 33342],% blastocysts/oocyte,[1],17%
same,% cleave,[1],44^a %
same,% blastocysts/oocyte,[2],23%
same,% cleave,[2],60^b %
same,% blastocysts/oocyte,[3],0^a %
same,% cleave,[3],23^a %
same,% blastocysts/oocyte,[4],16^b %
same,% cleave,[4],42^b %
same,effect of increased stain concentration on cleavage or embryonic development,stain concentration up to at least 2240 μM,does not appear to have a depressive effect
